Broadly, the LD50 is the dose expected to kill half of the subjects tested.

The values that follow come from US4393210A, “1(2H)-Isoquinolone compounds and acid addition salts thereof” (Seiyaku Co., Ltd., priority 1980, dated 1983).

Structures can show the parent of a compound that is named as a salt.

One series in a line: Acute toxicity. Conditions: mouse, in vivo; mice fasted overnight, observed for 7 days; route not stated. The procedure: The test compound was administered to ddy male mice (body weight, 20 to 25 g) fasted overnight before administration.
The next series relates to gastric secretion. In words: Gastric secretion inhibitory activity, pylorus ligation. Particulars: for pH Value (gastric juice) / Amount of Gastric Juice / Amount of Output Secretion: 4 hours, n=10; for pH Value (gastric juice): control 1.71 ± 0.11; for Amount of Gastric Juice: control 2.51 ± 0.32; for Amount of Gastric Juice / Amount of Output Secretion: **p < 0.01; for Amount of Output Secretion: control 184 ± 27.2; for effect on volume of gastric juice, acid secretion and pH value: Table 2, 100 mg/kg. Type of series: in vivo, Wister male rats. The procedure:
The pylorus of Wister male rats (body weight, 180 to 200 g) fasted for 24 hours was ligated under ether anesthesia and, immediately thereafter, the test compound was administered into the duodenum. Four hours after the administration, the stomach was extracted and gastric juice was collected and centrifuged at 3,000 r.p.m. for 15 minutes. The volume of gastric juice, the pH value and the amount of output secretion were then determined with respect to the supernatant.

Series [1] deals with histamine-induced contraction, guinea pig ileum. In words: Anti-histamine activity, histamine-induced contraction of extracted ileum (Magnus tube). Particulars: 31° C.; for shift of histamine-induced contraction curve: treatment 30 seconds before inducing contraction; for anti-histamine activity: guinea pig ileum. The procedure:
(§1) The ileum of guinea pig (body weight, 300 to 400 g) was extracted and suspended in a Magnus tobe containing Tyrode's solution (saturated with oxygen) at 31° C. and the inhibitory activity of the test compounds on the contraction induced by administration of histamine or acetylchloline was determined. The treatment with the test compounds was conducted 30 seconds before inducing the contraction.

The test system of series [2] is decrease in body temperature induced by administration of reserpine. In words: Anti-reserpine (anti-depression) activity, rectal temperature. Type of series: in vivo, ddy male mice. Conditions: oral, 50 and 100 mg/kg; reserpine 2 mg/kg s.c. twice. The procedure: Reserpine was administered subcutaneously to ddy male mice (body weight, 25 to 30 g) at a dose of 2 mg/kg and, after fasting for 18 hours, reserpine was again administered subcutaneously at a dose of 2 mg/kg. Five hours after the second administration of reserpine, the mice which indicated a constant decrease in body temperature were selected and administered orally with the test compound (Compound C), followed by measuring the rectal temperature of the mice at one hour intervals.
In this experiment, Imipramine (10,11-dihydro-N,N-dimethyl-5H-dibenz[b,f]azepine-5-propanamine) and Amitriptyline [3-(10,11-dihydro-5H-dibenzo[a,d]-cyclohepten-5-ylidene)-N,N-dimethyl-1-propanamine] were used as typical examples of known compounds for comparison and the results obtained with these compounds are also shown in FIG. 1(a).

In series [3] the test system is pain reaction induced by acetic acid injection. In words: Analgesic activity, acetic acid stretching method (Koster et al). Type of series: in vivo, ddy male mice. Particulars: oral; for Number of Stretching: n=8, control 36.5 ± 6.5. The procedure:
According to the acetic acid stretching method described by Koster et al [Fed. Pro., 18, 412 (1959)], Compound A was administered orally to ddy male mice (body weight, 20 to 25 g) fasted overnight before test. One hour after administration of Compound A, a 0.6% aqueous acetic acid solution was administered intraperitoneally at a dose of 0.35 ml per mouse and the stretching of the mice was observed 10 minutes after the administration of the acetic acid solution for a period of 10 minutes, and the percent inhibition was calculated.

Series [4] concerns ulcer generation caused by water-dipping restriction stress. Briefly: Anti-ulcer activity, stress ulcer (water-dipping restriction stress). Type of series: in vivo, Wister male rats. Conditions: for Percent Inhibition (stress ulcer) / Ulcerous Index: oral; for Ulcerous Index: n=6, control 75.8. The procedure: The test compound was administered orally to Wister male rats (body weight, 200 to 230 g) and then the rats were tied up with a steel wire and dipped in water at 23° C. in a tank to the level of the xiphisternum of rats. After allowing the rats to stand for 7 hours in water, the rats were sacrificed and the stomach was extracted. 10 ml of a 1% formalin solution was injected into the stomach cavity and the stomach was dipped in a 1% formalin solution for 15 minutes to semi-harden the stomach. The stomach was excised along the greater curvature thereof and the ulcer generated in the portion of corpus ventriculi was observed.

For series [5], the system named is contraction induced by acetylchloline, ileum of guinea pig. In words: Anti-cholinergic activity, acetylcholine-induced contraction of extracted ileum (Magnus tube). Particulars: 31° C. The procedure: as §1
The subject of series [6] is indomethacin-induced ulcer. In words: Anti-ulcer activity, indomethacin-induced ulcer. The format is in vivo, Wister male rats. Conditions: for Percent Inhibition (indomethacin ulcer) / Ulcerous Index: oral; for Ulcerous Index: control 15.4, indomethacin 20 mg/kg s.c. The procedure:
A suspension of indomechacin in 0.25% CMC was administered subcutaneously at a dose of 20 mg/kg to Wister male rats (body weight, 125 to 150 g) fasted for 24 hours. The test compound was administered orally 30 minutes before the administration of indomethacin. Seven hours after the administration of indomethacin, the rats were sacrificed by dislocation of neck, and the stomach was extracted. 7.5 ml of 1% formalin solution was injected into the stomach cavity, and the stomack was hardened. The linear-type ulcer generated in the mucous membrane of the stomach was then observed.

Setting [7] is: 100 mg/kg into the duodenum, *p < 0.05.

`CN(C)CCCn1cc(C#N)c2ccccc2c1=O` [Compound C, 4-cyano-2-(3-N,N-dimethylaminopropyl)-1(2H)-isoquinolone tartrate 1/2 hydrate] displayed an LD50 at 168 h in “Acute toxicity” of 699 mg/kg. Moreover, the “pH Value (gastric juice)” value with gastric secretion (setting [7]) is 1.88 ± 0.10. Further, in the series on gastric secretion (100 mg/kg into the duodenum), the “Amount of Gastric Juice” value was found to be 1.85 ± 0.35 mL and the “Amount of Output Secretion” value was determined as 72 ± 5.3 μ Eq. Besides, in the series on gastric secretion, the “effect on volume of gastric juice, acid secretion and pH value” is “reduce the volume of gastric juice and the acid secretion and increase the pH value”. Further, in series [1], the “shift of histamine-induced contraction curve” value (“shift” for short) is reported as “shift the hitamine-induced contraction curve determined in guinea pig ileum to the right direction on the figures in parallel” and the anti-histamine activity entry was “possess a specific anti-histamine activity”. Further, the “rectal temperature decreased by pretreatment with reserpine” value in series [2] is “increases at a dose of 50 and 100 mg/kg significantly the rectal temperature”.

Turning to `CN(C)CCCn1cc(-c2ccccc2)c2ccccc2c1=O` [Compound A, 2-(3-N,N-dimethylaminopropyl)-4-phenyl-1(2H)-isoquinolone tartrate], in the series “Acute toxicity”, the LD50 at 168 h stood at 662 mg/kg. For the same compound, the “Number of Stretching” value came to 33.8 ± 8.2 in series [3] (25 mg/kg); 16.9 ± 4.8 in series [3] (50 mg/kg, *p < 0.05); 10.0 ± 2.8 in series [3] (100 mg/kg, **p < 0.01). The “Percent Inhibition (stretching)” value is 53.7% in series [3] (50 mg/kg) and 72.6% in series [3] (100 mg/kg). Besides, in series [3] (50 and 100 mg/kg), the “inhibition of the pain reaction induced by acetic acid injection” value is given as “inhibited the pain reaction induced by acetic acid injection”. In addition, the “pH Value (gastric juice)” value in the series with gastric secretion (setting [7]) is 3.06 ± 0.44. Further, the “Amount of Gastric Juice” value in the series on gastric secretion (100 mg/kg into the duodenum) is 0.53 ± 0.12 mL. Also, the “Amount of Output Secretion” value in the series on gastric secretion (100 mg/kg into the duodenum) is listed as 22 ± 5.9 μ Eq. In the series on gastric secretion, the “effect on volume of gastric juice, acid secretion and pH value” was “reduce the volume of gastric juice and the acid secretion and increase the pH value”. Also, the “shift” value in series [1] is “shift the hitamine-induced contraction curve determined in guinea pig ileum to the right direction on the figures in parallel”. Further, in series [1], the anti-histamine activity entry was “possess a specific anti-histamine activity”. The “inhibition of ulcer generation caused by water-dipping restriction stress” value in series [4] (dose of 25, 50 and 100 mg) is listed as “inhibits the ulcer generation caused by water-dipping restriction stress”. In addition, the “Percent Inhibition (stress ulcer)” value in series [4] (25 mg/kg) was found to be 23.5%; in series [4] (50 mg/kg) it was 36.4%; in series [4] (100 mg/kg), 66.0%. Moreover, the “Ulcerous Index” value in series [4] (25 mg/kg) stood at 58.0 mm; in series [4] (50 mg/kg), 48.2 mm; in series [4] (100 mg/kg), 25.3 mm. In addition, in series [5], the anti-cholinergic activity result was “non-specific anti-cholinergic activity”.

On to `CN(C)CCn1cc(-c2ccccc2)c2ccccc2c1=O` [Compound B, 2-(2-N,N-dimethylaminoethyl)-4-phenyl-1(2H)-isoquinolone hydrochloride], for which the median lethal dose (LD50) at 168 h in the series “Acute toxicity” was determined as 195 mg/kg. For the same compound, in series [1], the “shift” value is “shift the hitamine-induced contraction curve determined in guinea pig ileum to the right direction on the figures in parallel” and the anti-histamine activity entry was “possess a specific anti-histamine activity”. In series [6] (50 mg/kg), the “inhibition of indomethacin-induced ulcer” value is given as “inhibit the indomethacin-induced ulcer” and the “Percent Inhibition (indomethacin ulcer)” value worked out at 61.0%. The “Ulcerous Index” value in series [6] (50 mg/kg, n=8) came to 6.0 mm. Also, in series [5], the anti-cholinergic activity result is listed as “non-specific anti-cholinergic activity”.

With `CC(Cn1cc(-c2ccccc2)c2ccccc2c1=O)N(C)C` (stereo not drawn) [Compound D, 2-(2-N,N-dimethylaminopropyl)-4-phenyl-1(2H)-isoquinolone maleate], the LD50 at 168 h in the series “Acute toxicity” turned out to be 505 mg/kg. Further, in series [6] (50 mg/kg), the “inhibition of indomethacin-induced ulcer” value was “inhibit the indomethacin-induced ulcer” and the “Percent Inhibition (indomethacin ulcer)” value turned out to be 73.0%. In series [6] (50 mg/kg, n=8), the “Ulcerous Index” value came out at 4.1 mm.

Consider `CCN1CCCC1CNC(=O)c1cc(S(N)(=O)=O)ccc1OC` (stereo not drawn) [Sulpiride, 5(aminosulfonyl)-N--(1ethyl-2-pyrrolidinyl)-methyl 2-methoxybenzamide, reference compound], for which the “Ulcerous Index” value in series [4] (100 mg/kg) turned out to be 71.0 mm.

Turning to `CN1[C@@H]2CC[C@H]1C[C@@H](OC(=O)C(CO)c1ccccc1)C2` (stereo partly drawn) [Atropine, reference compound], in the series on gastric secretion (5 mg/kg into the duodenum), the “pH Value (gastric juice)” value is reported as 2.22 ± 0.25, the “Amount of Gastric Juice” value was determined as 0.90 ± 0.09 mL and the “Amount of Output Secretion” value came to 57 ± 6.0 μ Eq. In series [4] (5 mg/kg), the “Percent Inhibition (stress ulcer)” value is given as 93.0% and the “Ulcerous Index” value is on record as 5.3 mm.

For the compound “basic aluminum sucrose sulfate [Sucralfate, reference compound]”, in series [6] (300 mg/kg), the “Percent Inhibition (indomethacin ulcer)” value is reported as 81.1% and the “Ulcerous Index” value came out at 2.9 mm.
